This note sets out measurements from US20110059015A1, “VACCINE” (priority 2002, published 2011).

This experiment deals with Fab S8-gp120 III-B binding. Nature of the experiment: Peptide inhibition of gp120-Fab S8 binding (ELISA). Also on record: species or system HIV-1. As for the experimental part:
Peptides from selected phage clones were synthesised by Isogen (Maarssen, The Netherlands). For binding competition experiments, purified S8 Fab (1 μg/ml) was incubated (4° C., 4 h) with several dilutions of the corresponding peptide before addition to gp120III-B (2 μg/ml)-coated microtiter wells.
Background: An ELISA detects its analyte on a solid surface through an enzyme-linked reagent.

Where [1] appears, read: peptide 50 μg/ml (124R1: a similar concentration), Fab S8 1 μg/ml.

Turning to FLQPPDFSHLPP [Fab 124R1], under setting [1], the “inhibition of Fab S8-gp120 binding” value is listed as 15%. With LLADTTHHRPWT [Fab 124R4], under setting [1], the “inhibition of Fab S8-gp120 binding” value worked out at 50%. Take “QEVGKAMYAPPI [ENV-9, peptide corresponding to gp120 amino acid residues 428-439]”: under “peptide concentration not given”, the “inhibition of Fab S8-gp120 binding” value is reported as 50%. For the sequence GIQLANPPRLYG [Fab 124R9], the “inhibition of Fab S8-gp120 binding” value under setting [1] is given as 50%.
